According to patent US9585886B2, “ASK1 inhibiting pyrrolopyrimidine derivatives” (CALCHAN LIMITED, priority 2010, dated 2017):

How the values were obtained:
[1] = target: T1, human ASK1 kinase (Homo sapiens, UniProt Q99683); assay: Determination of ASK1 inhibitor activity (IMAP FP assay of example 52 or AlphaLISA assay of example 53)
T1 sequence (Q99683 1-1374): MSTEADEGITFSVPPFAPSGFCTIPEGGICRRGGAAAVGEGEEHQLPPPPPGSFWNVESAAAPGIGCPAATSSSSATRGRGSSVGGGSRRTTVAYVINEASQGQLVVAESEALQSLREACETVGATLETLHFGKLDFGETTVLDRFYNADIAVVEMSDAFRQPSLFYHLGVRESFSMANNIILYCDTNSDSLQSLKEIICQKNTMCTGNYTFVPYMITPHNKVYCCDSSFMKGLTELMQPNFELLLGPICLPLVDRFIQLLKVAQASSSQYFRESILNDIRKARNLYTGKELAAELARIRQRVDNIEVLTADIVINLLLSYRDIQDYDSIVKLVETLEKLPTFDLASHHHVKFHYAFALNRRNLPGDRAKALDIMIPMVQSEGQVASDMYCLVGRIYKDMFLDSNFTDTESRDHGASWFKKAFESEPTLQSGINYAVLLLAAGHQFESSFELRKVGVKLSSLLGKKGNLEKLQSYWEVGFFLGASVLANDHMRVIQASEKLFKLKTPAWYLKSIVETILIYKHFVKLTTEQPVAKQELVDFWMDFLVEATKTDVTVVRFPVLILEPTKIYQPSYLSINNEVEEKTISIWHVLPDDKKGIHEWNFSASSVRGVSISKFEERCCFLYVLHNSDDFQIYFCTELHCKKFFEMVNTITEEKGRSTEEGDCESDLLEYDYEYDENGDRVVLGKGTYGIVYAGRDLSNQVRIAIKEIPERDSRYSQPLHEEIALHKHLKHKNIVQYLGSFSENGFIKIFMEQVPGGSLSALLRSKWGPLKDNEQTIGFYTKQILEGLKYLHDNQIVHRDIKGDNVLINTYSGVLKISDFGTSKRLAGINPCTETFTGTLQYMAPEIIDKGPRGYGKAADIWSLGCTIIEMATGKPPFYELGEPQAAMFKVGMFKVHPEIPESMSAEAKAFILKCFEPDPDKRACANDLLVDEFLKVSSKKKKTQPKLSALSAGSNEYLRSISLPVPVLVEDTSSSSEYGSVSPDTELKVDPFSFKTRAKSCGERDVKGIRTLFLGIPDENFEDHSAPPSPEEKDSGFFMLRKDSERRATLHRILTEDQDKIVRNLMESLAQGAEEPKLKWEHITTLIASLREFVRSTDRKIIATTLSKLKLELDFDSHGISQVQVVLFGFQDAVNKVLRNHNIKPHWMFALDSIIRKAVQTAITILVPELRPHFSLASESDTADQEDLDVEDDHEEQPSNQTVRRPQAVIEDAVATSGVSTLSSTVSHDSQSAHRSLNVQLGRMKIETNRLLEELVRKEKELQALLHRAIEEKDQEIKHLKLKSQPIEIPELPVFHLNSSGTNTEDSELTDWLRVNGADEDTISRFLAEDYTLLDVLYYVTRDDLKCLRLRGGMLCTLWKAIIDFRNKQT

[2] = test system: FCA-induced inflammatory mechanical hypersensitivity
[3] = test system: CCI-induced mechanical allodynia; conditions: rat CCI model

Structure (SMILES) | IC50 [1] | effect on inflammatory mechanical hypersensitivity caused by FCA (weightbearing) ([2]; dosed orally 24 hours after FCA injection, at 30 mg/kg) | effect on inflammatory mechanical hypersensitivity (FIG. 2, weightbearing) ([2]; rats, 3 mg/kg po and 30 mg/kg po, 24 hours after intraplantar FCA, measured 1 hour after dosing) | effect on mechanical allodynia caused by nerve injury in the CCI model [3]
O=C(NC1CCN(c2nc[nH]c3nccc2-3)CC1)c1ccc(N2CCCC2)cc1 [4-(1-pyrrolidinyl)-N-[1-(1H-pyrrolo[2,3-d]pyrimidin-4-yl)-4-piperidinyl]benzamide] | 25.1 µM | – | – | –
Cc1c[nH]c2ncnc(N3CCC(NC(=O)c4ccccc4)CC3)c12 [Example 17] | – | partially reverse the inflammatory mechanical hypersensitivity | reverses inflammatory mechanical hypersensitivity | partially reversed the mechanical allodynia
